This is an account of results in patent US8969586B2 (Bristol-Myers Squibb Company, priority 2011, dated 2015).

Molecules are shown by their SMILES.

Sequence of Human CYP17 (P05093 whole entry): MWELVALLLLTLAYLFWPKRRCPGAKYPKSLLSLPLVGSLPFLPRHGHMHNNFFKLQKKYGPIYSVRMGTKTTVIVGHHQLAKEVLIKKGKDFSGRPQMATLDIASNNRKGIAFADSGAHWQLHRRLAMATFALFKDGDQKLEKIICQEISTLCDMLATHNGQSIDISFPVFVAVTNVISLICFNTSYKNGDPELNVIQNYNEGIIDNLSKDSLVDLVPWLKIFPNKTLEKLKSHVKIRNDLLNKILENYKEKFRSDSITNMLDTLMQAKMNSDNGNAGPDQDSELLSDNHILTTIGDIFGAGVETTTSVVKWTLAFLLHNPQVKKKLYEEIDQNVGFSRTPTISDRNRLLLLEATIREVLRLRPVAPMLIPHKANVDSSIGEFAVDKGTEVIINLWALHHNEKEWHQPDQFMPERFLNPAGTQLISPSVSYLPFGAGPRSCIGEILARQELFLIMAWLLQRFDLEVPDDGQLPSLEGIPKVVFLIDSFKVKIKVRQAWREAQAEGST

In this experiment the target is Human CYP17 (Homo sapiens (Human), UniProt P05093). Nature of the experiment: CYP17 Total SPA Assay. It is filed as biochemical. The conditions noted are these: microsomes from HEK2 cells stably transfected with CYP17; 3H-Pregnenolone 1 uM, NADPH 2 mM; 45 minutes at room temperature. Here is the method:
The assays were performed in U-bottom 384-well optiplates. The final assay volume was 15 μl prepared from 7.5 μl additions of microsomes (prepared as a high-speed pellet from homogenized HEK2 cells stably transfected with CYP17), substrates (3H-Pregnenolone and NADPH) and test compounds in assay buffer (50 mM Potassium phosphate pH 7.2, 10% glycerol). The reaction was initiated by the combination of the microsomes and substrates in wells containing compound. The reaction was incubated at room temperature for 45 minutes and terminated by adding 7.5 μl of 0.2N HCl to each well. Following an incubation period of 10 minutes, anti-DHEA-coated SPA beads were added to the terminated reaction. The plate was sealed and incubated overnight with shaking at 4° C. The beads were allowed to settle in the plate for 1 hour and the plate read on a TOPCOUNT® (Perkin-Elmer) plate reader.
Inhibition data were calculated by comparison to no enzyme control reactions for 100% inhibition and vehicle-only reactions for 0% inhibition. The final concentration of reagents in the assays are NADPH, 2 mM; 3H-Pregnenolone, 1 uM; microsomes, 1.25 ug/ml; Anti-DHEA-SPA beads (0.125 mg/well) in 0.5% Triton X-100 and DMSO, 0.05%. Dose response curves were generated to determine the concentration required inhibiting 50% of enzyme activity (IC50). Compounds were dissolved at 10 mM in dimethylsulfoxide (DMSO) and evaluated at eleven concentrations, each in duplicate. IC50 values were derived by non-linear regression analysis.
Table 5 below lists the IC50 values for the following examples of this invention measured in the Total CYP17 SPA Assay hereinabove.
`Cc1ccncc1-c1cccc2c(-c3ccccc3)noc12` [Example 1, 7-(4-Methylpyridin-3-yl)-3-phenylbenzo[d]isoxazole]: the IC50 is 0.0011 µM.
With `Cc1ncncc1-c1cccc2c(-c3ccccc3)noc12` [Example 4, 7-(4-Methylpyrimidin-5-yl)-3-phenylbenzo[d]isoxazole], the IC50 stood at 0.357 µM.
Then `Cc1ccncc1-c1cccc2c(-c3ccc(F)cc3)noc12` [Example 6, 3-(4-Fluorophenyl)-7-(4-methylpyridin-3-yl)benzo[d]isoxazole], with 0.0032 µM.
In the case of `Fc1ccc(-c2noc3c(-c4cncn5cccc45)cccc23)cc1` [Example 14, 3-(4-Fluorophenyl)-7-(pyrrolo[1,2-c]pyrimidin-4-yl)benzo[d]isoxazole], the half-inhibitory concentration (IC50) is 0.192 µM.
To `FC(F)(F)COc1ncncc1-c1cccc2c(-c3cnccn3)noc12` [Example 26, 3-(Pyrazin-2-yl)-7-(4-(2,2,2-trifluoroethoxy)pyrimidin-5-yl)benzo[d]isoxazole] belongs 0.065 µM.
With `Clc1ccncc1-c1cccc2c(C3CC3)noc12` [Example 30, 7-(4-Chloropyridin-3-yl)-3-cyclopropylbenzo[d]isoxazole], the IC50 came out at 0.048 µM.
Then `Clc1ccccc1-c1noc2c(-c3cncnc3-n3cncn3)cccc12` [Example 52, 7-(4-(1H-1,2,4-Triazol-1-yl)pyrimidin-5-yl)-3-(2-chlorophenyl)benzo[d]isoxazole], with 0.042 µM; and `Clc1ccccc1-c1noc2c(-c3cncnc3-n3nccn3)cccc12` [Example 57, 7-(4-(2H-1,2,3-Triazol-2-yl)pyrimidin-5-yl)-3-(2-chlorophenyl)benzo[d]isoxazole], with 0.524 µM; and `Cc1ccncc1-c1cccc2c(OCCN(C)C)noc12` [Example 68], with 0.524 µM.
With `Cc1ccncc1-c1ccnc2c(-c3ccc(F)cc3)noc12` [Example 86, 3-(4-Fluorophenyl)-7-(4-methylpyridin-3-yl)isoxazolo[4,5-b]pyridine], the IC50 turned out to be 0.0039 µM.
To `Cc1ccncc1-c1ccnc2c(-c3nccs3)csc12` [Example 94, 7-(4-Methylpyridin-3-yl)-3-(thiazol-2-yl)thieno[3,2-b]pyridine] belongs 0.076 µM; to `Cc1ncncc1-c1ccnc2c(-c3ccc(F)cc3)csc12` [Example 98, 3-(4-Fluorophenyl)-7-(4-methylpyrimidin-5-yl)thieno[3,2-b]pyridine], 0.008 µM.
Then `Fc1ccc(-c2csc3c(-c4cncnc4C4CC4)ccnc23)cc1` [Example 99, 7-(4-Cyclopropylpyrimidin-5-yl)-3-(4-fluorophenyl)thieno[3,2-b]pyridine], with 0.004 µM; and `Nc1ncncc1-c1ccnc2c(-c3ccc(F)cc3Cl)csc12` [Example 103, 5-(3-(2-Chloro-4-fluorophenyl)thieno[3,2-b]pyridin-7-yl)pyrimidin-4-amine], with 0.004 µM.
Turning to `Fc1ccc(-c2csc3c(-c4cncc5ccccc45)cccc23)cc1` [Example 109, 4-(3-(4-Fluorophenyl)benzo[b]thiophen-7-yl)isoquinoline], the IC50 worked out at 0.056 µM.
With `Cc1ccncc1-c1cccc2c(OCc3ccc4ccccc4c3)noc12` [Example 124, 7-(4-methylpyridin-3-yl)-3-(naphthalen-2-ylmethoxy)benzo [d]isoxazole], the half-inhibitory concentration (IC50) stood at 0.611 µM.
With `Cc1ccncc1-c1cccc2c(OCc3ccc(Cl)cc3)noc12` [Example 128, 3-(4-chlorobenzyloxy)-7-(4-methylpyridin-3-yl)benzo[d] isoxazole], the IC50 was found to be 0.251 µM.
Then `COc1ccc(COc2noc3c(-c4cnccc4C)cccc23)cc1` [Example 129, 3-(4-methoxybenzyloxy)-7-(4-methylpyridin-3-yl)benzo[d] isoxazole], with 0.079 µM.
